The text below walks through data of patent US20100076022A1, “NOVEL POLYMORPHS OF RIMONABANT” (HETERO DRUGS LIMITED, priority 2006, published 2010).

Each structure is given as a SMILES string.

Data set [1] in a line: stability of the solid form over time. The settings on record: test conditions not given. It counts as physicochemical.
Data set [2] is described as follows: dissolution rate of the solid form. The settings on record: amorphous form compared with crystalline form; test conditions not given. In kind it is physicochemical.

With `Cc1c(C(=O)NN2CCCCC2)nn(-c2ccc(Cl)cc2Cl)c1-c1ccc(Cl)cc1.O` [crystalline rimonabant hydrate], the stability entry in data set [1] is “stable over time”.

Turning to `Cc1c(C(=O)NN2CCCCC2)nn(-c2ccc(Cl)cc2Cl)c1-c1ccc(Cl)cc1` [amorphous rimonabant form], the stability entry in data set [1] is given as “highly stable”. The dissolution rate entry in data set [2] was “better dissolution rate”.
